Our source for the IC50, Activity and inhibition values is ChEMBL document CHEMBL3632469, “Discovery of dihydroquinazolinone derivatives as potent, selective, and CNS-penetrant M(1) and M(4) muscarinic acetylcholine receptors agonists” (Bioorg Med Chem Lett, 2015).

For test [1], the target named is Cytochrome P450 3A4 (Homo sapiens, UniProt P08684). Kind of test: Inhibition of CYP3A4 (unknown origin). It counts as ADME.
The target in test [2] is T1, Muscarinic acetylcholine receptor M5 (Homo sapiens) (UniProt P08912).
T1 sequence (whole entry): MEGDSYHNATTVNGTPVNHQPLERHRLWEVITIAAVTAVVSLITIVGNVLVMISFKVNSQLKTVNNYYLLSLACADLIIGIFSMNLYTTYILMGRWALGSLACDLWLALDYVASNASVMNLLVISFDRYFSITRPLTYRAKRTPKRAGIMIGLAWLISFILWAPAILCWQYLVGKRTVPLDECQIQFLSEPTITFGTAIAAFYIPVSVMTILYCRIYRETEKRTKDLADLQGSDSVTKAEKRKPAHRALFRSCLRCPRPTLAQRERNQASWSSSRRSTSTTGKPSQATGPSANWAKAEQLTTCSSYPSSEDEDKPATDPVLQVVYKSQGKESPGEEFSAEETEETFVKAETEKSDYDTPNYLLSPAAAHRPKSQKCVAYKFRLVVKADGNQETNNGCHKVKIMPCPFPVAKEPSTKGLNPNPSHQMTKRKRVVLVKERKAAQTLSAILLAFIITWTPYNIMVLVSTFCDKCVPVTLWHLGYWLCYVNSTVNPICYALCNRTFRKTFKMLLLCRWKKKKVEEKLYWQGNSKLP
Kind of test: Agonist activity at human muscarinic M5 acetylcholine receptor expressed in CHO cells assessed as calcium mobilization at 30 uM by FLIPR assay. In kind it is functional, cell-based.

Test [3] addresses Cannabinoid receptor 1 (Homo sapiens) (UniProt P21554). Kind of test: Agonist activity at CB1 receptor (unknown origin) expressed in CHO cells assessed as calcium mobilization at 3 uM. It counts as functional, cell-based. A general note: A change in cytosolic calcium serves as a functional read-out for many receptors and channels.
The target of test [4] is D(4) dopamine receptor (Homo sapiens) (UniProt P21917). Kind of test: Agonist activity at dopamine D4 receptor (unknown origin) expressed in CHO cells assessed as calcium mobilization at 3 uM. In kind it is functional, cell-based.
Sequence of D(4) dopamine receptor (Homo sapiens) (P21917 whole entry): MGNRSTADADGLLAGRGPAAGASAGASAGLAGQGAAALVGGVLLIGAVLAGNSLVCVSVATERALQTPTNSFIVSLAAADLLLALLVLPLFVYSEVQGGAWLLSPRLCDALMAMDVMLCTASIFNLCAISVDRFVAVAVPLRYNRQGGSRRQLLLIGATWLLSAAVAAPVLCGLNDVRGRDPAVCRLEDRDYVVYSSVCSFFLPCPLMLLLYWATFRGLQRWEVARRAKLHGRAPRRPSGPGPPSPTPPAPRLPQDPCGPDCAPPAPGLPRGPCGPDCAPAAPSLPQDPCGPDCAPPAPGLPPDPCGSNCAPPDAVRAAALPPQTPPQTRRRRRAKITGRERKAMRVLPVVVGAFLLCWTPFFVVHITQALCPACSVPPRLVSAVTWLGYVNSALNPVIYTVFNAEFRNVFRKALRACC
Test [5] concerns the target 5-hydroxytryptamine receptor 1B (Homo sapiens) (UniProt P28222). Briefly: Antagonist activity at 5-HT1B receptor (unknown origin) expressed in CHO cells assessed as calcium mobilization at 3 uM. It counts as functional, cell-based.
In test [6] the target is Cytochrome P450 2C9 (Homo sapiens, UniProt P11712). Briefly: Inhibition of CYP2C9 (unknown origin). In kind it is ADME.
Sequence of Cytochrome P450 2C9 (P11712 whole entry): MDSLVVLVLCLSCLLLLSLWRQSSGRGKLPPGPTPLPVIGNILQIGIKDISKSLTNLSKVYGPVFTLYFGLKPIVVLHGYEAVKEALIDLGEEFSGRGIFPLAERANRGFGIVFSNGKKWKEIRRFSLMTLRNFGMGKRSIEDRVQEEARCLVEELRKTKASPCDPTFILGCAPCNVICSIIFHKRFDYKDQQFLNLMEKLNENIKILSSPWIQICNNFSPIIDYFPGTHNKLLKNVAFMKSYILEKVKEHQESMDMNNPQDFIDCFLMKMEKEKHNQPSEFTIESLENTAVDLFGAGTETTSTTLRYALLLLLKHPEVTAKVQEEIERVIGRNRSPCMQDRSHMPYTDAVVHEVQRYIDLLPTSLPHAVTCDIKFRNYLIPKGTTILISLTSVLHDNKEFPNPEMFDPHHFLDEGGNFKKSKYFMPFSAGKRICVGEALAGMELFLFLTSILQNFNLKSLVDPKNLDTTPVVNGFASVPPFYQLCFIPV
Test [7] has as its target T2, Muscarinic acetylcholine receptor M4 (Homo sapiens) (UniProt P08173).
T2 sequence (whole entry): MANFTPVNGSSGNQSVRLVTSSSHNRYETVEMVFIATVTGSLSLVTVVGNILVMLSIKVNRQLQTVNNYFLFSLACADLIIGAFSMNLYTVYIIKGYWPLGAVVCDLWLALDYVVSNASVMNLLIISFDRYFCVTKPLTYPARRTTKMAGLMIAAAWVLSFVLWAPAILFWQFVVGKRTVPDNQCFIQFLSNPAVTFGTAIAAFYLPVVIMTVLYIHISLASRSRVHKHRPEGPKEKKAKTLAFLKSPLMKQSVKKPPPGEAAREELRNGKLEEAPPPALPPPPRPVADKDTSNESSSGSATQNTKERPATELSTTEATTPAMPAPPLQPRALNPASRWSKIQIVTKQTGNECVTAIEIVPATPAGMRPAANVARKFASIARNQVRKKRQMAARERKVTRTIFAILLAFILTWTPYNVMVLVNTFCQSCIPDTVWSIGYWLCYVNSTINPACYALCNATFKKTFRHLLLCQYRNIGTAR
Briefly: Partial agonist activity at human muscarinic M4 acetylcholine receptor expressed in CHO cells co-expressing Galpha16 assessed as calcium mobilization at 30 uM by FLIPR assay. In kind it is functional, cell-based.

The target of test [8] is Neuropeptide Y receptor type 2 (Homo sapiens) (UniProt P49146). Kind of test: Agonist activity at NPY2 receptor (unknown origin) expressed in CHO cells assessed as calcium mobilization at 3 uM. In kind it is functional, cell-based.
Sequence of Neuropeptide Y receptor type 2 (Homo sapiens) (P49146 whole entry): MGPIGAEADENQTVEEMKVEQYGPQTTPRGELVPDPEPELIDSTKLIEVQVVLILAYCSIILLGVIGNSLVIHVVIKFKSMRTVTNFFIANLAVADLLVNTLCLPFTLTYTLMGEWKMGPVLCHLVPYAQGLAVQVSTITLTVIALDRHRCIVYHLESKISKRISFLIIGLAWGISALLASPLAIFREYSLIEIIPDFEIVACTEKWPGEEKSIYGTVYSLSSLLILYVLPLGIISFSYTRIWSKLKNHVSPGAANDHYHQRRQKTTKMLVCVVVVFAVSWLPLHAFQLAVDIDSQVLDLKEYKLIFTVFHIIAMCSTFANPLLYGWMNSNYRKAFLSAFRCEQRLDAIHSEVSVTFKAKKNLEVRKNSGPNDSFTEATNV
Test [9] has as its target 5-hydroxytryptamine receptor 7 (Homo sapiens) (UniProt P34969). Kind of test: Antagonist activity at 5-HT7B receptor (unknown origin) expressed in CHO cells assessed as calcium mobilization at 3 uM. In kind it is functional, cell-based.
Test [10] concerns the target Histamine H1 receptor (Homo sapiens) (UniProt P35367). Briefly: Antagonist activity at histamine H1 receptor (unknown origin) expressed in CHO cells assessed as calcium mobilization at 3 uM. It counts as functional, cell-based.
Test [11] has the same target. Kind of test: Agonist activity at histamine H1 receptor (unknown origin) expressed in CHO cells assessed as calcium mobilization at 3 uM. In kind it is functional, cell-based.
Test [12] concerns CHO. Briefly: Antagonist activity at GaBaB receptor (unknown origin) expressed in CHO cells assessed as calcium mobilization at 3 uM. In kind it is cell-based. As to conditions: Homo sapiens.
The target of test [13] is Adenosine receptor A1 (Homo sapiens) (UniProt P30542). Kind of test: Antagonist activity at adenosine a1 receptor (unknown origin) expressed in CHO cells assessed as calcium mobilization at 3 uM. It counts as functional, cell-based.
Sequence of Adenosine receptor A1 (Homo sapiens) (P30542 whole entry): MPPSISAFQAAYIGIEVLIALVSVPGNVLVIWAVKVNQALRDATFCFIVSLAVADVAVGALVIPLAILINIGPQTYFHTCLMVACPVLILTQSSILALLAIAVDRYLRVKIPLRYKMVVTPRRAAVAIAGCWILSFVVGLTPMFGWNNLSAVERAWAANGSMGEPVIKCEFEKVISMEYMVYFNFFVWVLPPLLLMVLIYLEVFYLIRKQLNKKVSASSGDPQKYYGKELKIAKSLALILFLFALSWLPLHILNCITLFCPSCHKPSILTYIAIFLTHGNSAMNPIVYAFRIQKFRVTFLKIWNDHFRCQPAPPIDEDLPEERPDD
Test [14] deals with Beta-1 adrenergic receptor (Homo sapiens) (UniProt P08588). Kind of test: Agonist activity at adrenergic beta1 receptor (unknown origin) expressed in CHO cells assessed as calcium mobilization at 3 uM. In kind it is functional, cell-based.
Sequence of Beta-1 adrenergic receptor (Homo sapiens) (P08588 whole entry, looked up): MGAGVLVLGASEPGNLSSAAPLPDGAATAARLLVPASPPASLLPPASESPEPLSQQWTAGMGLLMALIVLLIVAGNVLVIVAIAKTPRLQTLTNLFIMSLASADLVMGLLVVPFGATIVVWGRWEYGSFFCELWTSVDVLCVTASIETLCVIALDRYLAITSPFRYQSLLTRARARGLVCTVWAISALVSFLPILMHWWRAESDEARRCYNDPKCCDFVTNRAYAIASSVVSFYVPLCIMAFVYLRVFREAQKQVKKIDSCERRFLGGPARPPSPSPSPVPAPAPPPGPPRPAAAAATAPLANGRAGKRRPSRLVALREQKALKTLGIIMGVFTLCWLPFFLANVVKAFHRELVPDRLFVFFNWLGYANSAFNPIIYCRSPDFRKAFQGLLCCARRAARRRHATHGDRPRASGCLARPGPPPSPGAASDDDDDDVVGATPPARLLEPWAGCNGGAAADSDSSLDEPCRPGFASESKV
In test [15] the target is P2Y purinoceptor 1 (Homo sapiens) (UniProt P47900). Briefly: Agonist activity at P2Y1 receptor (unknown origin) expressed in CHO cells assessed as calcium mobilization at 3 uM. In kind it is functional, cell-based.
Sequence of P2Y purinoceptor 1 (Homo sapiens) (P47900 whole entry): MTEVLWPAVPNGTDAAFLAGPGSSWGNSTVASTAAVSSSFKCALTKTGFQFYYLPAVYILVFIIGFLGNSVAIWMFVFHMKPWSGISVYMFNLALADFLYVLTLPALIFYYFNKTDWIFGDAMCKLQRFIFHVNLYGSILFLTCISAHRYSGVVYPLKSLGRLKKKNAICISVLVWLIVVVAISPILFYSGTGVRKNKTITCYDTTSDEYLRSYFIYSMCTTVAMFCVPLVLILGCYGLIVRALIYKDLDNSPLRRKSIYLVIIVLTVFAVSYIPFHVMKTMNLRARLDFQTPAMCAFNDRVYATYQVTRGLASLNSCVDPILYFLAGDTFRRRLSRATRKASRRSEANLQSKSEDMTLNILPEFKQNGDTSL
Test [16] has as its target Beta-2 adrenergic receptor (Homo sapiens) (UniProt P07550). Kind of test: Antagonist activity at adrenergic beta2 receptor (unknown origin) expressed in CHO cells assessed as calcium mobilization at 3 uM. It counts as functional, cell-based.
Test [17] concerns the target Delta-type opioid receptor (Homo sapiens) (UniProt P41143). Kind of test: Antagonist activity at opiate delta1 receptor (unknown origin) expressed in CHO cells assessed as calcium mobilization at 3 uM. It counts as functional, cell-based.
For test [18], the target named is Adrenergic receptor alpha-1 (Homo sapiens) (UniProt P35348+P25100+P35368). Kind of test: Agonist activity at adrenergic a1 receptor (unknown origin) expressed in CHO cells assessed as calcium mobilization at 3 uM. In kind it is functional, cell-based.
Test [19] addresses Histamine H1 receptor (Homo sapiens) (UniProt P35367). Briefly: Binding affinity to histamine H1 receptor (unknown origin) at 3 uM by radioligand-binding assay.
In test [20] the target is D(1B) dopamine receptor (Homo sapiens) (UniProt P21918). Kind of test: Antagonist activity at dopamine D5 receptor (unknown origin) expressed in CHO cells assessed as calcium mobilization at 3 uM. In kind it is functional, cell-based.

Structures are written as SMILES. Some results are limits rather than exact numbers.

Sequence of Histamine H1 receptor (Homo sapiens) (P35367 whole entry): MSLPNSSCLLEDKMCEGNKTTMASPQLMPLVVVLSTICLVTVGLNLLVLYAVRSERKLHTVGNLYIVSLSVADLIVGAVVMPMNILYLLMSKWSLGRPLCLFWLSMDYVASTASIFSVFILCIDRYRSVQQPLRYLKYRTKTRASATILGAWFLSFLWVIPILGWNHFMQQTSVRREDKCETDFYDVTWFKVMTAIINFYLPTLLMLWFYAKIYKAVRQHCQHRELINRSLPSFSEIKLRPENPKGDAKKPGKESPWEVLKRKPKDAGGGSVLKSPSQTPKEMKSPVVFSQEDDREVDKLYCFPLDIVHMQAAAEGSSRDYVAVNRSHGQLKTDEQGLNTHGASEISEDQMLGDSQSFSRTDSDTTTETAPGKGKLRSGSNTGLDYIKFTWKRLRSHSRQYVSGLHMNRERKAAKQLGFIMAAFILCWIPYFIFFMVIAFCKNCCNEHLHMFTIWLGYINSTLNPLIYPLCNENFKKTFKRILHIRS
Sequence of Beta-2 adrenergic receptor (Homo sapiens) (P07550 whole entry, looked up): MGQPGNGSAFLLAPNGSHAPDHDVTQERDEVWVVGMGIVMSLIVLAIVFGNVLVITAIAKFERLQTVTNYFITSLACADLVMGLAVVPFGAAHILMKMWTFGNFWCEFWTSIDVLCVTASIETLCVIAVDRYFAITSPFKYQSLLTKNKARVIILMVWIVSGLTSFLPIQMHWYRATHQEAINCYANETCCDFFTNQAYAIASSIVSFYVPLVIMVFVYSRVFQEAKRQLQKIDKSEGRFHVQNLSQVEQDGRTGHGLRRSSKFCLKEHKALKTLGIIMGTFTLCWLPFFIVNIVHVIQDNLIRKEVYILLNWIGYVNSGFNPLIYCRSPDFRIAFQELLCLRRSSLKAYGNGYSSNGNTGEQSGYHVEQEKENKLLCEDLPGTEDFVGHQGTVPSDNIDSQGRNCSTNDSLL
Sequence of Cytochrome P450 3A4 (P08684 whole entry): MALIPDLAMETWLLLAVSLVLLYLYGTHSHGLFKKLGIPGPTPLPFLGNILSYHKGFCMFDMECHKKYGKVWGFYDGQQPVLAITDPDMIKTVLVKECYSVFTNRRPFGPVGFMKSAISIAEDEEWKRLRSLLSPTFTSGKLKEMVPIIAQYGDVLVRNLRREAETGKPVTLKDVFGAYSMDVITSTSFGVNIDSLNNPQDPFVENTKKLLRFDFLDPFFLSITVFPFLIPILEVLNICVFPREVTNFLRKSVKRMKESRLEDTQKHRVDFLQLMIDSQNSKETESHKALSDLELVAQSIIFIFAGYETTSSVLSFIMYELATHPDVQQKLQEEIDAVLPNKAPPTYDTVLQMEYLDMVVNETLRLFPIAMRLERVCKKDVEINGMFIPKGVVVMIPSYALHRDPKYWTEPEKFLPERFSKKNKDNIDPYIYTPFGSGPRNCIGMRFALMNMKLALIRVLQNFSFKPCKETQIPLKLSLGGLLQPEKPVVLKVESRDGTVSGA
Sequence of 5-hydroxytryptamine receptor 1B (Homo sapiens) (P28222 whole entry): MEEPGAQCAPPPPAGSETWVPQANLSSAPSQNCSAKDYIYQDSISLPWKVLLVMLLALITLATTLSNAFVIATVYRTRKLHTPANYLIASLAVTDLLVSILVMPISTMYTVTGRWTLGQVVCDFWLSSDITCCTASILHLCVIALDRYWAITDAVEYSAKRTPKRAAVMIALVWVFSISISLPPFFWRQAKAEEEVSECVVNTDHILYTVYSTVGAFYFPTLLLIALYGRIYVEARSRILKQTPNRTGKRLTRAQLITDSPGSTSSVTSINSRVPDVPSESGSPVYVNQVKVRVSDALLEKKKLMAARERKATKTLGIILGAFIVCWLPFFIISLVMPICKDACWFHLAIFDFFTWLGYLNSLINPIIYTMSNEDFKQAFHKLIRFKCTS
Sequence of Cannabinoid receptor 1 (Homo sapiens) (P21554 whole entry): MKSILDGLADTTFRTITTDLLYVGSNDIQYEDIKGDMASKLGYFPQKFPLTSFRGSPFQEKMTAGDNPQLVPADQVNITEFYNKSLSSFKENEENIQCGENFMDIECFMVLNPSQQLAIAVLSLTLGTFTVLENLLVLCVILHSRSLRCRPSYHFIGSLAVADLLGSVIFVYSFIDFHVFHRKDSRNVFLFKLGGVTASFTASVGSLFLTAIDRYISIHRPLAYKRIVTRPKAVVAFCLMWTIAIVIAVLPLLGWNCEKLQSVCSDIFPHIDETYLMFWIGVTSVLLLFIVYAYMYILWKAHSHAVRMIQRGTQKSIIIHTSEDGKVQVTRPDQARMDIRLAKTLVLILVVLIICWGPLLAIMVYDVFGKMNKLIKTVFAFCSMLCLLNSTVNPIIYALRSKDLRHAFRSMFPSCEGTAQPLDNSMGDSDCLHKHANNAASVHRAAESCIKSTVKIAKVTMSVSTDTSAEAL

Usually IC50 stands for the midpoint of a concentration-inhibition curve. Low values mean greater potency in that assay, high ones weaker potency in that assay. In general, inhibition refers to the relative decrease from the control value, in per cent. In the case of `CCOC(=O)N1[C@@H]2CC[C@H]1C[C@H](CN1CC[C@@H](N3Cc4ccccc4NC3=O)C1)C2`, the IC50 in test [1] and in test [6] was over 2 µM in each case. Also, the Activity in [2] is 3%; in test [3] it was 1.66%; in test [4], -0.14%; in test [7] it was 51%; in [8] it was 1.73%; in test [11] it was 0.17%. Besides, the Activity in test [14] was 0.03%; in test [15] it was -0.18%; in test [18] it was -0.04%. The inhibition in [5] was 10.5%; in test [9] it was 15.4%; in [10], 5.59%; in [12], 4.47%; in [13], -3.67%; in test [16], 0.18%. In addition, the figures for the inhibition in test [17], in [19] and in test [20] were 20.9%, 6% and -3.44%, respectively.
